Test results reported in patent US20100130454A1, “9,10-SECOPREGNANE DERIVATIVES AND MEDICINE” (NIPPON SHINYAKU CO., LTD., priority 2004, published 2010).
Where two headings read alike, the source gives them in different places.

How the values were obtained:
[1] = Action to raise calcium concentration in serum, repeated percutaneous administration; assay type: in vivo, rat; conditions: male SD rats, percutaneous 33 μg/200 μL/kg/day once daily for seven days, blood 24 hours after final administration
Procedure: A solution of the compound of the present invention mentioned in Example 1 or maxacalcitol in ethanol containing 0.3% of DMSO was repeatedly subjected to a percutaneous administration (33 μg/200 μL/kg/day) for seven days once daily onto the back of male rats (7 weeks of age) of the SD strain. An ethanol solution containing 0.3% of DMSO was administered to a control group. At 24 hours after the final administration, blood was collected and calcium concentration in serum was measured.

[2] = system: human acute myelogenous leukemia cell line HL-60; experiment: Ability to induce differentiation of HL-60 cells (oxygen radical production after phorbol ester stimulation, WST-1); assay type: cell-based; conditions: 72 hours incubation, then WST-1 and phorbol 12,13-didecanoate for 4 hours, absorbance at 450, read-out: EC50 (50%-maximal effect concentration), induction of HL-60 differentiation
Description: It has been known that human acute myelogenous leukemia cell line HL-60 is differentiated into a neutrophil-like cell by active form of vitamin D. Thus, the cells after the differentiation begin to express a surface marker such as CD11 and CD32 and, at the same time, they produce oxygen radical by stimulation with a phorbol ester. In this test, the above-mentioned property was utilized to assess an ability to induce the differentiation of HL-60 cell of the compounds of the present invention mentioned in the Examples and maxacalcitol using as an indicator the amount of oxygen radical produced by stimulation with a phorbol ester whereby a vitamin D3 activity was compared and investigated. When commercially available reagents and kits were used, they were used according to the indications attached thereto.
(Procedure) HL-60 cells (supplied from ATCC) were seeded on a 96-well plate at 5×10^3 cells/100 μL/well and a test compound in two-fold dilution series from 10^−7 M was added to the second to the twelfth rows (maximum concentration: the second row). The first row was used for blank. Maxacalcitol was added to lines A and B and the compound of the present invention was added to lines C and D. After incubation for 72 hours under a moisturized condition in the presence of 5% CO2 at 37° C. using a CO2 incubator, 101 μL of PBS containing 50 mM WST-1 (manufactured by Takara Bio) and 10 μM phorbol 12,13-didecanoate (manufactured by Sigma) were added to each well followed by incubating for 4 hours more. Absorbance (reference wavelength: 655 nM) at 450 nM of a WST-1 formazan dye generated by conversion from WST-1 by oxygen radical produced from the differentiated HL-60 cells was measured by a Benchmark microplate reader (manufactured by BioRad). An absorbance meter control software MPM 3 (manufactured by BioRad) was used and, from a concentration-absorbance curve, the 50%-maximal effect concentration (hereinafter, referred to as “EC50”) of each was determined by a logistic curve regression.

[3] = Action to raise the urinary excretion of calcium (1), repeated percutaneous administration; assay type: in vivo, rat; conditions: male SD rats, percutaneous 0.33, 3.3 and 33 μg/kg/day once daily for three days, urine collected every 24 hours, compared with control
Procedure: Open triangles show a control; open squares show the case where 0.33 μg/kg of the compound of Example 1 was administered; open rhombuses show the case where 3.3 μg/kg of the compound of Example 1 was administered; open circles show the case where 33 μg/kg of the compound of Example 1 was administered; black squares show the case where 0.33 μg/kg of maxacalcitol was administered; black rhombuses show the case where 3.3 μg/kg of maxacalcitol was administered; and black circles show the case where 33 μg/kg of maxacalcitol was administered.
A solution of the compound of the present invention mentioned in Example 1 or maxacalcitol in ethanol containing 0.3% of DMSO was repeatedly subjected to a percutaneous administration (0.33, 3.3 and 33 μg/200 μl/kg/day) for three days once daily onto the back of male rats (7 weeks of age) of the SD strain. An ethanol solution containing 0.3% of DMSO was administered to a control group. Calcium concentration in urine collected every 24 hours after administration on each day was measured and multiplied by the amount of urine to calculate the urinary excretion of calcium.

[4] = Metabolic rate in human liver microsome; assay type: in vitro ADME; conditions: pooled human liver microsome, 1 mg/mL protein, NADPH production system, pH 7.4, 37° C., HPLC
Procedure: Metabolic rates of the compounds of the present invention mentioned in Examples and maxacalcitol in human liver microsome were compared and investigated.
As to the pooled human liver microsome (HHM-0323), those manufactured by Tissue Transformation Technologies were used. A 0.25M potassium phosphate buffer (pH 7.4) (200 μL), 5 μL of a 250 μM solution of each compound to be tested in DMSO, 50 μL of an NADPH production system (where 20 mg of (β-NADP^+, 70 mg of glucose-6-phosphate, 40 units of glucose-6-phosphate dehydrogenase and 20 mg of magnesium chloride were dissolved in 1 mL of distilled water) and 220 μL of distilled water were added to a microtube and the mixture was subjected to a preincubation for 5 minutes at 37° C. Reaction was started by addition of 25 μL of human liver microsome (final concentration of protein: 1 mg/mL). Incubation was performed for 2, 10, 30 or 60 minutes and the reaction was stopped by addition of 500 μL of acetonitrile. After centrifugation at 13,000 rpm for 5 minutes, each test compound in the supernatant (25 μL) was measured by an HPLC under the following conditions.
Inertsil ODS-3 (4.6×150 mm; GL Science) was used as a column. With regard to mobile phase, a solution A (acetonitrile/0.1% aqueous solution of ammonium acetate=10/90) and a solution B (acetonitrile/0.1% aqueous solution of ammonium acetate=90/10) were used under the linear gradient conditions mentioned in Table 4. Column temperature, flow rate and wavelength for detection were set at 40° C., 1.0 mL/min. and UV 270 nm, respectively.
From the result of measurement by the above-mentioned HPLC, metabolic rates of the test compounds were calculated.

[5] = Action to raise the urinary excretion of calcium (2), intravenous administration; assay type: in vivo, rat; conditions: male SD rats, intravenous 22.4 nmol/kg; for Urinary excretion of calcium: urine collected during 24 hours after administration; for Ratio of urinary excretion of calcium (to Control): urine collected during 24 hours, relative to control group
Procedure: The compound of the present invention mentioned in Examples 3 or 8, or maxacalcitol (22.4 nmol/kg) was subjected to an intravenous administration to male rats (7 weeks of age) of the SD strain. A physiological saline containing 0.1% of Triton X 100 was administered to a control group. Calcium concentration in urine collected during 24 hours after the administration was measured and urinary excretion of calcium ([calcium concentration in urine]×[amount of urine]) and ratio of urinary excretion of calcium based on the control group ([calcium amount in urine upon administration of the compound to be tested]/[calcium amount in urine in the control group]) were calculated.

| Compound | EC50 [2] [nM] | Metabolic Rate [4] [pmol/min/mg] | further results |
| --- | --- | --- | --- |
| C=C1C(=CC=C2CCCC3(C)C2CCC3C(C)OC(=O)CCCC(C)(C)O)CC(O)CC1O [Compound of Example 3, (1S,3R,20S)-20-(5-Hydroxy-5-methylhexanoyloxy)-9,10-secopregna-5Z,7E,10(19)-trien-1,3-diol] | 2.6 | 22 | Urinary excretion of calcium [5]: 0.66 mg; Ratio of urinary excretion of calcium (to Control) [5]: 93% |
| C=C1/C(=C\C=C2/CCC[C@]3(C)[C@@H]([C@H](C)OC(=O)/C=C/C(C)(C)O)CC[C@@H]23)C[C@@H](O)C[C@@H]1O [Compound of Example 8, (1S,3R,20S)-20-[(2E)-4-Hydroxy-4-methylpent-2-enoyloxy]-9,10-secopregna-5Z,7E,10(19)-trien-1,3-diol] | 3.1 | 38 | Urinary excretion of calcium [5]: 0.89 mg; Ratio of urinary excretion of calcium (to Control) [5]: 125% |
| C=C1C(=CC=C2CCCC3(C)C2CCC3C(C)OC(=O)CC(CC)C(C)O)CC(O)CC1O [Compound of Example 12, (1S,3R,20S)-20-(3-Ethyl-4-hydroxypentanoyloxy)-9,10-secopregna-5Z,7E,10(19)-trien-1,3-diol] | 4.2 | – | – |
| C=C1C(=CC=C2CCCC3(C)C2CCC3C(C)OC(=O)CCC(O)(CC)CC)CC(O)CC1O [Compound of Example 13, (1S,3R,20S)-20-(4-Ethyl-4-hydroxyhexanoyloxy)-9,10-secopregna-5Z,7E,10(19)-trien-1,3-diol] | 2.3 | 38 | – |
| C=C1C(=CC=C2CCCC3(C)C2CCC3C(C)OC(=O)CN(C)CC(C)(C)O)CC(O)CC1O [Compound of Example 19, (1S,3R,20S)-20-[N-(2-Hydroxy-2-methylpropyl)-N-methyl-2-aminoacetyloxy]-9,10-secopregna-5Z,7E,10(19)-trien-1,3-diol] | 4 | – | – |
| C=C1C(=CC=C2CCCC3(C)C2CCC3C(C)OC(=O)CC(=O)C(C)(C)O)CC(O)CC1O [Compound of Example 27, (1S,3R,20S)-20-(4-Hydroxy-4-methyl-3-oxo-pentanoyloxy)-9,10-secopregna-5Z,7E,10(19)-trien-1,3-diol] | 3 | – | – |
| C=C1C(=CC=C2CCCC3(C)C2CCC3C(C)OC(=O)CC(=O)C(O)(CC)CC)CC(O)CC1O [Compound of Example 28, (1S,3R,20S)-20-(4-Ethyl-4-hydroxy-3-oxo-hexanoyloxy)-9,10-secopregna-5Z,7E,10(19)-trien-1,3-diol] | 2.5 | – | – |
| C=C1/C(=C\C=C2/CCC[C@]3(C)[C@@H]([C@H](C)OCCC(C)(C)O)CC[C@@H]23)C[C@@H](O)C[C@@H]1O [Maxacalcitol, (1S,3R,20S)-20-(3-hydroxy-3-methylbutyl-oxy)-9,10-secopregna-5Z,7E,10(19)-trien-1,3-diol, reference compound] | – | 10 | Urinary excretion of calcium [5]: 1.5 mg; Ratio of urinary excretion of calcium (to Control) [5]: 211%; Calcium Concentration in Serum [1]: 15.0 mg/dL; EC50 ([2]; Homo sapiens): 5.4 nM; Urinary excretion of calcium (FIG. 1) [3]: increased in a dose-dependent manner |
| (1S,3R,20S)-20-(5-Hydroxy-5-methylheptanoyloxy)-9,10-secopregna-5Z,7E,10(19)-trien-1,3-diol [Compound of Example 11] | 4.3 | 23 | – |

Continued by falling EC50 [2], values first:

| EC50 [2] [nM] | Metabolic Rate [4] [pmol/min/mg] | Compound | further results |
| --- | --- | --- | --- |
| 2 | 78 | C=C1/C(=C\C=C2/CCC[C@]3(C)[C@@H]([C@H](C)OC(=O)CCC(C)(C)O)CC[C@@H]23)C[C@@H](O)C[C@@H]1O [Compound of Example 1, (1S,3R,20S)-20-(4-Hydroxy-4-methyl-pentanoyloxy)-9,10-secopregna-5Z,7E,10(19)-trien-1,3-diol] | Calcium Concentration in Serum [1]: 11.8 mg/dL; Urinary excretion of calcium (FIG. 1) [3]: no significant increase in urinary excretion of calcium |
| 1.7 | 39 | C=C1C(=CC=C2CCCC3(C)C2CCC3C(C)OC(=O)CCC2(O)CCCC2)CC(O)CC1O [Compound of Example 20, (1S,3R,20S)-20-[3-(1-Hydroxycyclopentyl)propanoyloxy]-9,10-secopregna-5Z,7E,10(19)-trien-1,3-diol] | – |
| 1.2 | 58 | C=C1C(=CC=C2CCCC3(C)C2CCC3C(C)OC(=O)C=CC(O)(CC)CC)CC(O)CC1O [Compound of Example 10, (1S,3R,20S)-20-[(2E)-4-Ethyl-4-hydroxyhex-2-enoyloxy]-9,10-secopregna-5Z,7E,10(19)-trien-1,3-diol] | – |
| 1.1 | – | C=C1C(=CC=C2CCCC3(C)C2CCC3C(C)OC(=O)CC(O)C(C)C)CC(O)CC1O [Compound of Example 5, (1S,3R,20S)-20-(3-Hydroxy-4-methylpentanoyloxy)-9,10-secopregna-5Z,7E,10(19)-trien-1,3-diol] | – |
| 0.44 | – | C=C1C(=CC=C2CCCC3(C)C2CCC3C(C)OC(=O)CC(O)(C(F)(F)F)C(F)(F)F)CC(O)CC1O [Compound of Example 7, (1S,3R,20S)-20-[4,4,4-Trifluoro-3-hydroxy-3-(trifluoromethyl)butanoyloxy]-9,10-secopregna-5Z,7E,10(19)-trien-1,3-diol] | – |
| 0.21 | – | C=C1C(=CC=C2CCCC3(C)C2CCC3C(C)OC(=O)CC(C)(O)C(F)(F)F)CC(O)CC1O [Compound of Example 4, (1S,3R,20S)-20-(4,4,4-Trifluoro-3-hydroxy-3-methylbutanoyloxy)-9,10-secopregna-5Z,7E,10(19)-trien-1,3-diol] | – |
